According to article PMC6450621, “Changes of drug pharmacokinetics mediated by downregulation of kidney organic cation transporters Mate1 and Oct2 in a rat model of hyperuricemia” (PLoS ONE, 2019):
Several values for one entry are separate records, joined by “and”; a condition that tells them apart may be missing. Equal entries are not always repeated.

Assay: Pharmacokinetic study after intravenous administration in control and hyperuricemic rats (plasma, urine, kidney);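 also: Pentobarbital-anesthetized rats with cannulated bladder, jugular plasma, timed urine and saline kidney homogenate assayed by HPLC or LC-MS/MS, Kp as kidney over plasma level at 4 h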
Settings: for AUC0-4 / Kp, kidney / Kp at 4 h: creatinine; for Kp at 4 h / AUC(0-t) / concentration at 0.5 min / concentration at 30 min / concentration at 60 min: rat; for Kp at 4 h: kidney; for AUC(0-t) / concentration at 0.5 min / concentration at 30 min / concentration at 60 min: plasma; for concentration at 0.5 min / concentration at 30 min / concentration at 60 min: Plasma concentration
[1] = control rats, individual rats and mean
[2] = hyperuricemic rats, individual rats and mean

Experimental: Rats were anesthetized with pentobarbital, and the bladder was cannulated with polyethylene tubing (inside diameter 0.5 mm, outside diameter 0.8 mm). […] Blood was drawn through the jugular vein, and plasma was obtained by centrifugation at 3,000 rpm for 10 min at 4°C. Urine was collected at the designated times. […] All samples were stored at -80°C until measurement.
If necessary, plasma and urine were diluted 10- to 100-fold and 10- to 10000-fold with saline, respectively, for high-performance liquid chromatography (HPLC) or liquid chromatography/tandem mass spectrometry (LC-MS/MS) measurement. […] Prepared samples were mixed for 1 min and centrifuged at 15,000 rpm for 5 min at 4°C. The resultant supernatant was used for LC-MS/MS analysis. The LC-MS/MS system consisted of a triple-quadrupole mass spectrometer (API 3200^TM, SCIEX, Foster City, CA) coupled with an ultrafast liquid chromatography system (LC-20AD, Shimadzu, Kyoto, Japan). […] For metformin, the mobile phase consisted of 0.1% formic acid and acetonitrile (30 : 70), and the flow rate was 0.4 mL/min.
The plasma concentration-time data were analyzed by non-compartmental analysis. The area under the plasma concentration-time curve (AUC0-4) was obtained by application of the trapezoidal rule from time 0 to 4 h. AUC from 0 to infinity (AUCinf) was estimated by extrapolation to infinity.

- Plasma concentration (control rats, 0.5 min after iv metformin 30 mg/kg or cephalexin 10 mg/kg (creatinine endogenous), individual rat): 19.0 µM and 21.0 µM
- Plasma concentration (control rats, 30 min after iv metformin 30 mg/kg or cephalexin 10 mg/kg (creatinine endogenous), individual rat): 20.1 µM and 20.4 µM
- Plasma concentration (control rats, 60 min after iv metformin 30 mg/kg or cephalexin 10 mg/kg (creatinine endogenous), individual rat): 18.9 µM and 19.0 µM
- AUC0-4 [1]: 5400 µM·min and 5463 µM·min
- Kp, kidney [1]: 10.4 and 11.3
- AUC0-4 [2]: 10502 µM·min and 8634 µM·min
- Kp, kidney [2]: 11.7 and 17.3
- Plasma concentration (hyperuricemic rats, 0.5 min after iv metformin 30 mg/kg or cephalexin 10 mg/kg (creatinine endogenous), individual rat): 36.4 µM and 30.6 µM
- Urinary excretion (cumulative) (hyperuricemic rats, 10 min, individual rats and mean): 0.12 mg (3×) and 0.11 mg
- Urinary excretion (cumulative) (hyperuricemic rats, 20 min, individual rats and mean): 0.19 mg (3×) and 0.20 mg
- Urinary excretion (cumulative) (hyperuricemic rats, 30 min, individual rats and mean): 0.26 mg (2×) and 0.28 mg and 0.25 mg
- Plasma concentration (hyperuricemic rats, 30 min after iv metformin 30 mg/kg or cephalexin 10 mg/kg (creatinine endogenous), individual rat): 34.4 µM and 30.6 µM
- Plasma concentration (hyperuricemic rats, 60 min after iv metformin 30 mg/kg or cephalexin 10 mg/kg (creatinine endogenous), individual rat): 34.5 µM and 36.2 µM
- Kp at 4 h (intravenous, control rats, individual rats and mean): 8.8
- Kp at 4 h (intravenous, hyperuricemic rats, individual rats and mean): 12
- AUC(0-t) (intravenous, AUC0-4, creatinine, control rats, individual rats and mean): 87.6 µM·h
- AUC(0-t) (intravenous, AUC0-4, creatinine, hyperuricemic rats, individual rats and mean): 171 µM·h
- concentration at 0.5 min (intravenous, control rats, 0.5 min after iv metformin 30 mg/kg or cephalexin 10 mg/kg (creatinine endogenous), individual rat): 17.7 µM
- concentration at 0.5 min (intravenous, control rats, 0.5 min after iv metformin 30 mg/kg or cephalexin 10 mg/kg (creatinine endogenous), mean n=3): 19.2 µM
- concentration at 30 min (intravenous, control rats, 30 min after iv metformin 30 mg/kg or cephalexin 10 mg/kg (creatinine endogenous), individual rat): 19.5 µM
- concentration at 30 min (intravenous, control rats, 30 min after iv metformin 30 mg/kg or cephalexin 10 mg/kg (creatinine endogenous), mean n=3): 20 µM
- concentration at 60 min (intravenous, control rats, 60 min after iv metformin 30 mg/kg or cephalexin 10 mg/kg (creatinine endogenous), individual rat): 22.9 µM
- concentration at 60 min (intravenous, control rats, 60 min after iv metformin 30 mg/kg or cephalexin 10 mg/kg (creatinine endogenous), mean n=3): 20.3 µM
- concentration at 0.5 min (intravenous, hyperuricemic rats, 0.5 min after iv metformin 30 mg/kg or cephalexin 10 mg/kg (creatinine endogenous), individual rat): 24.6 µM
- concentration at 0.5 min (intravenous, hyperuricemic rats, 0.5 min after iv metformin 30 mg/kg or cephalexin 10 mg/kg (creatinine endogenous), mean n=3): 30.5 µM
- concentration at 30 min (intravenous, hyperuricemic rats, 30 min after iv metformin 30 mg/kg or cephalexin 10 mg/kg (creatinine endogenous), individual rat): 25.9 µM
- concentration at 30 min (intravenous, hyperuricemic rats, 30 min after iv metformin 30 mg/kg or cephalexin 10 mg/kg (creatinine endogenous), mean n=3): 30.3 µM
- concentration at 60 min (intravenous, hyperuricemic rats, 60 min after iv metformin 30 mg/kg or cephalexin 10 mg/kg (creatinine endogenous), individual rat): 26.5 µM
- concentration at 60 min (intravenous, hyperuricemic rats, 60 min after iv metformin 30 mg/kg or cephalexin 10 mg/kg (creatinine endogenous), mean n=3): 32.4 µM
- AUC(0-t) (iv, AUC0-4, control rats, iv metformin 30 mg/kg or cephalexin 10 mg/kg, creatinine endogenous, mean n=3): 89.5 µM·h
- AUC(0-t) (iv, AUC0-4, hyperuricemic rats, iv metformin 30 mg/kg or cephalexin 10 mg/kg, creatinine endogenous, mean n=3): 163 µM·h
Compound: CN1CC(=O)NC1=N [Creatinine, creatinine]
- Urinary excretion (cumulative) (control rats, 10 min, individual rats and mean): 0.04 mg and 0.06 mg and 0.09 mg and 0.07 mg
- Urinary excretion (cumulative) (control rats, 20 min, individual rats and mean): 0.10 mg and 0.12 mg and 0.16 mg and 0.13 mg
- Urinary excretion (cumulative) (control rats, 30 min, individual rats and mean): 0.13 mg and 0.19 mg and 0.22 mg and 0.18 mg
- Urinary excretion (cumulative) (control rats, 60 min, individual rats and mean): 0.18 mg and 0.30 mg and 0.32 mg and 0.27 mg
- Urinary excretion (cumulative) (control rats, 120 min, individual rats and mean): 0.46 mg and 0.61 mg and 0.52 mg and 0.53 mg
- Urinary excretion (cumulative) (control rats, 240 min, individual rats and mean): 0.98 mg and 1.44 mg and 1.32 mg and 1.25 mg
- Urinary excretion (cumulative) (hyperuricemic rats, 60 min, individual rats and mean): 0.42 mg and 0.39 mg and 0.44 mg and 0.43 mg
- Urinary excretion (cumulative) (hyperuricemic rats, 120 min, individual rats and mean): 0.69 mg and 0.58 mg and 0.73 mg and 0.76 mg
- Urinary excretion (cumulative) (hyperuricemic rats, 240 min, individual rats and mean): 1.22 mg and 0.95 mg and 1.24 mg and 1.48 mg
